Reference: patent publication US4587052A, “1H-pyrrolo-[2,1-C][1,4]benzodiazepine-2-acrylamide compounds having antitumor activity” (priority 1983, dated 1986)
Read-outs that look alike come from different tables or passages of the source.

Columns and labels:
[1] = tested on: mouse ascitic leukemia p388; assay: Antitumor activity test (mouse ascitic leukemia p388 i.p. in BDF1-strain male mice); type: in vivo; conditions: for Prolongation of survival time, %: ip; for Therapeutic index: Table 2, toxic dose/effective dose
Protocol: 10^6 Cells of mouse ascitic leukemia p388 were administered intraperitoneally into each member of the groups of 8 to 12 BDF1 -strain male mice, each 18 to 20 g in body weight. After 24 hr from the administration, a test compound was intraperitoneally administered to each member of the test group in a predetermined dose once a day for 4 consecutive days. Days elapsed until death of the test animal were counted for each mouse. To each member of the control group, a physiological saline solution was administered. The average survival period of the animal was represented by mean survival time. The prolongation of survival time, indicative of the effectiveness of a test compound, was calculated by the following equation. [formula] The therapeutic index was calculated by the following equation. [formula]

in vivo = conditions: mouse, ip
Protocol: A test compound was dissolved in dimethyl sulfoxide and the solution was diluted to 50-fold with a physiological saline solution. This original solution was serially diluted at a common ratio of 1.15. Each resulting solution was administered intraperitoneally to groups of 10 to 15 dd-strain male mice, each 18 to 20 g in body weight. […] The LD50 was calculated from the number of dead mice of each group according to the Probit method.

[2] = already known; cited from earlier work
[3] = already known; cited from earlier work; remark: listed apart in the source
[4] = Table 1, i.p., dd-strain male mice, 3 weeks, read-out: LD50
[5] = Table 2, i.p., dd-strain male mice, 3 weeks, read-out: LD50

In the case of `COC1Nc2c(ccc(C)c2OC(=O)c2cccc([N+](=O)[O-])c2C(=O)O)C(=O)N2C=C(C=CC(N)=O)CC12` (stereo not drawn) [5,10,11,11a-tetrahydro-9-(2-carboxy-3-nitrophenylcarbonyloxy)-11-methoxy-8-methyl-5-oxo-1H-pyrrolo-[2,1-C][1,4]-benzodiazepine-2-acrylamide], the “Prolongation of survival time, %” value ([1]; 30 mg/kg) is reported as 152% and the LD50 at 504 h (in vivo; [4]) is reported as 95 mg/kg.

For `COC1Nc2c(ccc(C)c2OC(=O)c2ccccc2C(=O)O)C(=O)N2C=C(C=CC(N)=O)CC12` (stereo not drawn) [5,10,11,11a-tetrahydro-9-(2-carboxyphenylcarbonyloxy)-11-methoxy-8-methyl-5-oxo-1H-pyrrolo-[2,1-C][1,4]-benzodiazepine-2-acrylamide], the “Prolongation of survival time, %” value ([1]; 30 mg/kg) was 130.2% and the LD50 at 504 h (in vivo; [4]) was 86.9 mg/kg.

Work on `Cc1ccc2c(c1OCc1ccccc1C#N)NC(O)C1CC(/C=C/C(N)=O)=CN1C2=O` (stereo not drawn) [5,10,11,11a-tetrahydro-9-(2-cyanobenzyloxy)-11-hydroxy-8-methyl-5-oxo-1H-pyrrolo-[2,1-C][1,4]benzodiazepine-2-acrylamide] yielded a Therapeutic index [1] of 73.3 and an LD50 at 504 h (in vivo) of 120 mg/kg.

Work on `CC(=O)SC(CC(=O)Oc1c(C)ccc2c1NC(O)C1CC(/C=C/C(N)=O)=CN1C2=O)C(=O)O` (stereo not drawn) [5,10,11,11a-tetrahydro-9-(3-carboxy-3-S-acetylmercaptopropanoyloxy)-11-hydroxy-8-methyl-5-oxo-1H-pyrrolo-[2,1-C][1,4]-benzodiazepine-2-acrylamide] yielded an LD50 at 504 h (in vivo; [4]) of 138 mg/kg.

With `COC1Nc2c(ccc(C)c2OCCc2ccc(C(=O)O)cc2)C(=O)N2C=C(/C=C/C(N)=O)CC12` (stereo not drawn) [5,10,11,11a-tetrahydro-9-[2-(4-carboxyphenyl)-ethoxy]-11-methoxy-8-methyl-5-oxo-1H-pyrrolo-[2,1-C][1,4]benzodiazepine-2-acrylamide] the Therapeutic index [1] was 82.3, the “Prolongation of survival time, %” value ([1]; 10 mg/kg) was 165% and the LD50 at 504 h (in vivo; [5]) was 128 mg/kg.

`CCC(CCCN)Oc1c(C)ccc2c1NC(OC)C1CC(/C=C/C(N)=O)=CN1C2=O` (stereo not drawn) [5,10, 11, 11a-tetrahydro-9-(4-amino-1-ethylpropoxy)-11-methoxy-8-methyl-5-oxo-1H-pyrrolo-[2,1-C][1,4]benzodiazepine-2-acrylamide] showed a Therapeutic index [1] of 78.4 and an LD50 at 504 h (in vivo; [5]) of 115 mg/kg.

With `Cc1ccc2c(c1OCCC#N)NC(O)C1CC(/C=C/C(N)=O)=CN1C2=O` (stereo not drawn) [(CH2)2 CN, 5,10,11,11a-tetrahydro-9-(2-cyanoethoxy)-11-hydroxy-8-methyl-5-oxo-1H-pyrrolo-[2,1-C][1,4]benzodiazepine-2-acrylamide] the Therapeutic index [1] was 103.8 and the LD50 at 504 h (in vivo; [5]) was 118 mg/kg.

In the case of `Cc1ccc2c(c1OCCCC#N)NC(O)C1CC(/C=C/C(N)=O)=CN1C2=O` (stereo not drawn) [(CH2)3 CN, 5,10,11,11a-Tetrahydro-9-(3-cyanopropoxy)-11-hydroxy-8-methyl-5-oxo-1H-pyrrolo-[2,1-C][1,4]benzodiazepine-2-acrylamide], the Therapeutic index [1] is reported as 95.2, the “Prolongation of survival time, %” value ([1]; 10 mg/kg) is reported as 188% and the LD50 at 504 h (in vivo; [5]) is reported as 110 mg/kg.

In the case of `Cc1ccc2c(c1OCCCN)NC(O)C1CC(/C=C/C(N)=O)=CN1C2=O` (stereo not drawn) [(CH2)3 NH2, 5,10,11,11a-tetrahydro-9-(3-aminopropoxy)-11-hydroxy-8-methyl-5-oxo-1H-pyrrolo[2,1-C][1,4]benzodiazepine-2-acrylamide], the Therapeutic index [1] is reported as 93.5 and the LD50 at 504 h (in vivo) is reported as 103 mg/kg.

With `COC1Nc2c(ccc(C)c2OCCC(=O)O)C(=O)N2C=C(/C=C/C(N)=O)CC12` (stereo not drawn) [CH2 CH2 COOK, 5,10,11,11a-tetrahydro-9-(2-carboxyethoxy)-11-methoxy-8-methyl-5-oxo-1H-pyrrolo-[2,1-C][1,4]benzodiazepine-2-acrylamide] the Therapeutic index [1] was 72.4, the “Prolongation of survival time, %” value ([1]; 10 mg/kg) was 172% and the LD50 at 504 h (in vivo) was 105 mg/kg.

With `COC1Nc2c(ccc(C)c2OCC(=O)O)C(=O)N2C=C(/C=C/C(N)=O)CC12` (stereo not drawn) [CH2 COONa, 5,10,11,11a-tetrahydro-9-carboxymethoxy-11-methoxy-8-methyl-5-oxo-1H-pyrrolo-[2,1-C][1,4]benzodiazepine-2-acrylamide] the Therapeutic index [1] was 88.5 and the LD50 at 504 h (in vivo) was 102 mg/kg.

For `Cc1ccc2c(c1OC(=O)CCCCC(=O)O)NC(O)C1CC(/C=C/C(N)=O)=CN1C2=O` (stereo not drawn) [COCH2 CH2 CH2 CH2COOK, 5,10,11,11a-tetrahydro-9-(5-carboxypentanoyloxy)-11-hydroxy-8-methyl-5-oxo-1H-pyrrolo-[2,1-C][1,4]-benzodiazepine-2-acrylamide], the “Prolongation of survival time, %” value ([1]; 30 mg/kg) was 172.5% and the LD50 at 504 h (in vivo; [4]) was 157 mg/kg.

For `Cc1ccc2c(c1OC(=O)CCCC(=O)O)NC(O)C1CC(/C=C/C(N)=O)=CN1C2=O` (stereo not drawn) [COCH2 CH2 CH2COOK, 5,10,11,11a-tetrahydro-9-(4-carboxybutanoyloxy)-11-hydroxy-8-methyl-5-oxo-1H-pyrrolo-[2,1-C][1,4]-benzodiazepine-2-acrylamide], the “Prolongation of survival time, %” value ([1]; 30 mg/kg) was 185% and the LD50 at 504 h (in vivo; [4]) was 151 mg/kg.

With `Cc1ccc2c(c1OC(=O)CCC(=O)O)NC(O)C1CC(/C=C/C(N)=O)=CN1C2=O` (stereo not drawn) [COCH2 CH2COOK, 5,10,11,11a-tetrahydro-9-(3-carboxypropanoyloxy)-11-hydroxy-8-methyl-5-oxo-1H-pyrrolo[2,1-C][1,4]-benzodiazepine-2-acrylamide] the “Prolongation of survival time, %” value ([1]; 30 mg/kg) was 160% and the LD50 at 504 h (in vivo) was 120 mg/kg.

For `Cc1ccc2c(c1OC(=O)COCC(=O)O)NC(O)C1CC(/C=C/C(N)=O)=CN1C2=O` (stereo not drawn) [COCH2OCH2COOK, 5,10,11,11a-tetrahydro-9-(4-carboxy-3-oxabutanoyloxy)-11-hydroxy-8-methyl-5-oxo-1H-pyrrolo-[2,1-C][1,4]-benzodiazepine-2-acrylamide], the “Prolongation of survival time, %” value ([1]; 30 mg/kg) was 181.2% and the LD50 at 504 h (in vivo; [4]) was 160 mg/kg.

For `Cc1ccc2c(c1O)N=CC1CC(/C=C/C(N)=O)=CN1C2=O` (stereo not drawn) [P'B'A', 5,11,11a-trihydro-9-hydroxy-8-methyl-5-oxo-1H-pyrrolo[2,1-C][1,4]benzodiazepine-2-acylamide], the “antitumor activity (in words)” value [2] is listed as “an antitumor activity” and the “antibacterial activity (in words)” value [3] is listed as “have an antibacterial activity”.

For `Cc1ccc2c(c1O)NC(O)C1CC(/C=C/C(N)=O)=CN1C2=O` (stereo not drawn) [PBA, 5,10,11,11a-tetrahydro-9,11-dihydroxy-8-methyl-5-oxo-1H-pyrrolo-[2,1-C][1,4]-benzodiazepine-2-acrylamide, reference compound], the Therapeutic index [1] is listed as 36.5, the “antitumor activity (in words)” value [2] is listed as “an antitumor activity” and the LD50 at 504 h (in vivo) is listed as 0.73 mg/kg. For the same compound, the “antibacterial activity (in words)” value [3] was “have an antibacterial activity”.

With `CCCCCCCCCC(CC(=O)Oc1c(C)ccc2c1NC(O)C1CC(C=CC(N)=O)=CN1C2=O)C(=O)O` (stereo not drawn) [Table 1 entry 4 (R^1 not printed), 5,10,11,11a-tetrahydro-9-(3-carboxydodecanoyloxy)-11-hydroxy-8-methyl-5-oxo-1H-pyrrolo-[2,1-C][1,4]-benzodiazepine-2-acrylamide] the LD50 at 504 h (in vivo; [4]) was 122 mg/kg.
